pIC50: −log10 of the molar value.
biological target: T1, Full-length USP19 (Homo sapiens, UniProt O94966); experiment: USP19 fluorescence polarisation (FP) homogeneous assay with Ubiquitin-Lys-TAMRA substrate; format: biochemical; details: 2.5 nM USP19, 30 min pre-incubation, average of at least two duplicate experiments
T1 construct: Full-length USP19 was purchased from Boston Biochem (E-576); purchased Boston Biochem E-576
T1 sequence (O94966 1-1318): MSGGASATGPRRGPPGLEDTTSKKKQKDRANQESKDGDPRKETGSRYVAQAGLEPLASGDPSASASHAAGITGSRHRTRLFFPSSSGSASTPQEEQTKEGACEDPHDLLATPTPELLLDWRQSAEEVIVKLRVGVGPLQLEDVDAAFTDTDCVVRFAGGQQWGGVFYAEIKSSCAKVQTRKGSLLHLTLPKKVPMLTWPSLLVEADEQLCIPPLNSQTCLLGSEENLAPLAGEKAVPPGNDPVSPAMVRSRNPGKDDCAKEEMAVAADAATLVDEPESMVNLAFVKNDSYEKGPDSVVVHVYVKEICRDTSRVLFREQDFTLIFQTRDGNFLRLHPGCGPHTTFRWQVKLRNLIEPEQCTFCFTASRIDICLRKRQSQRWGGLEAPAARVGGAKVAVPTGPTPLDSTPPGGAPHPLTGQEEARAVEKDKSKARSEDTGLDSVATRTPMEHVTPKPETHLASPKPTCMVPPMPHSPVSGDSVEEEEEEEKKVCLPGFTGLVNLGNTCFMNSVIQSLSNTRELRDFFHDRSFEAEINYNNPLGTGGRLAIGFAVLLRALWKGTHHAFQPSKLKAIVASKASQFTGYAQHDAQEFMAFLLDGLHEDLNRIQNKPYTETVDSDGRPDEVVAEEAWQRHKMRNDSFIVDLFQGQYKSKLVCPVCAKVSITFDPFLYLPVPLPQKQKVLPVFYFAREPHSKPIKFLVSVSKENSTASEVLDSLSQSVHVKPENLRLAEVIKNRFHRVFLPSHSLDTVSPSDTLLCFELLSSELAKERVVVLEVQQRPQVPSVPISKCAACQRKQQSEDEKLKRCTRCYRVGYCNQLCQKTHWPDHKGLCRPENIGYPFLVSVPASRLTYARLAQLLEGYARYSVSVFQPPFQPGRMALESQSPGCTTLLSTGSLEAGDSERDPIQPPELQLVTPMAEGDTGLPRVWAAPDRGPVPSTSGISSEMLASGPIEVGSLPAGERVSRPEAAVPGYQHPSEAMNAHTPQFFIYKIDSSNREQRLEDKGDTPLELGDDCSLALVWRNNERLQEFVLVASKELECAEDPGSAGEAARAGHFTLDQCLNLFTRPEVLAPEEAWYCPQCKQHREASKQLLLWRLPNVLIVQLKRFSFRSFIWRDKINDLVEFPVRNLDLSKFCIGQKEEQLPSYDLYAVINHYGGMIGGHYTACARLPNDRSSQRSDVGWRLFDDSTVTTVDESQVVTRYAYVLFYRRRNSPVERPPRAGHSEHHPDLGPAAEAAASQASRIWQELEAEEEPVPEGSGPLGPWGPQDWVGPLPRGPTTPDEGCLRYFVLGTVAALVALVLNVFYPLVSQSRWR
Procedure, shortened: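 Full-length USP19 preincubated 30 min at RT with inhibitor (200 μM to 2 μM series, 8–18 points) before adding 500 nM Ubiquitin-Lys-TAMRA substrate.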

pIC50, 4.30 to 5.30:
O=C(NCc1ccc2c(c1)OCO2)N1CC[C@@](O)(Cn2cnc(-c3ccccc3)cc2=O)C2(CCCC2)C1 [Example 217, (S)—N-(Benzo[d][1,3]dioxol-5-ylmethyl)-10-hydroxy-10-((6-oxo-4-phenylpyrimidin-1(6H)-yl)methyl)-7-azaspiro[4.5]decane-7-carboxamide]
O=C(NCc1noc(C2CC2)n1)N1CC[C@@](O)(Cn2cnc(-c3ccccc3)cc2=O)C2(CCCC2)C1 [Example 218, (S)—N-((5-Cyclopropyl-1,2,4-oxadiazol-3-yl)methyl)-10-hydroxy-10-((6-oxo-4-phenylpyrimidin-1(6H)-yl)methyl)-7-azaspiro[4.5]decane-7-carboxamide]
O=C(N1CCC(O)(Cn2cnc(-c3ccccc3)cc2=O)C2(CCCC2)C1)N1CCOCC1CC1CC1 (stereo not drawn) [Example 229, 3-((7-(3-(Cyclopropylmethyl)morpholine-4-carbonyl)-10-hydroxy-7-azaspiro[4.5]decan-10-yl)methyl)-6-phenylpyrimidin-4(3H)-one]
COCC1COCCN1C(=O)N1CCC(O)(Cn2cnc(-c3ccccc3)cc2=O)C2(CCCC2)C1 (stereo not drawn) [Example 231, 3-((10-Hydroxy-7-(3-(methoxymethyl)morpholine-4-carbonyl)-7-azaspiro[4.5]decan-10-yl)methyl)-6-phenylpyrimidin-4(3H)-one]
CC1CCCN1C(=O)N1CCC(O)(Cn2cnc(-c3ccccc3)cc2=O)C2(CCCC2)C1 (stereo not drawn) [Example 233, 3-((10-Hydroxy-7-(2-methylpyrrolidine-1-carbonyl)-7-azaspiro[4.5]decan-10-yl)methyl)-6-phenylpyrimidin-4(3H)-one]
CN(C(=O)N1CCC(O)(Cn2cnc(-c3ccccc3)cc2=O)C2(CCCC2)C1)C1CCC1 (stereo not drawn) [Example 234, N-Cyclobutyl-10-hydroxy-N-methyl-10-((6-oxo-4-phenylpyrimidin-1(6H)-yl)methyl)-7-azaspiro[4.5]decane-7-carboxamide]

pIC50, 5.30 to 6.30:
O=C(N1CC(C(F)(F)F)C1)N1CC[C@@](O)(Cn2cnc(-c3ccccc3)cc2=O)C2(CCCC2)C1 [Example 221, (S)-3-((10-Hydroxy-7-(3-(trifluoromethyl)azetidine-1-carbonyl)-7-azaspiro[4.5]decan-10-yl)methyl)-6-phenylpyrimidin-4(3H)-one]
O=C(N1CCC(C(F)(F)F)C1)N1CC[C@@](O)(Cn2cnc(-c3ccccc3)cc2=O)C2(CCCC2)C1 (stereo partly drawn) [Example 227, 3-(((10S)-10-Hydroxy-7-(3-(trifluoromethyl)pyrrolidine-1-carbonyl)-7-azaspiro[4.5]decan-10-yl)methyl)-6-phenylpyrimidin-4(3H)-one]
CN(Cc1ccoc1)C(=O)N1CCC(O)(Cn2cnc(-c3ccccc3)cc2=O)C2(CCCC2)C1 (stereo not drawn) [Example 232, N-(Furan-3-ylmethyl)-10-hydroxy-N-methyl-10-((6-oxo-4-phenylpyrimidin-1(6H)-yl)methyl)-7-azaspiro[4.5]decane-7-carboxamide]

pIC50, 3.60 to 4.30:
O=C(N1CC[C@@](O)(Cn2cnc(-c3ccccc3)cc2=O)C2(CCCC2)C1)N1CCOC[C@@H]1c1ccccc1 [Example 212, 3-(((S)-10-Hydroxy-7-((S)-3-phenylmorpholine-4-carbonyl)-7-azaspiro[4.5]decan-10-yl)methyl)-6-phenylpyrimidin-4(3H)-one]
N#Cc1ccc(CNC(=O)N2CC[C@@](O)(Cn3cnc(-c4ccccc4)cc3=O)C3(CCCC3)C2)cc1 [Example 215, (S)—N-(4-Cyanobenzyl)-10-hydroxy-10-((6-oxo-4-phenylpyrimidin-1(6H)-yl)methyl)-7-azaspiro[4.5]decane-7-carboxamide]
O=C(N1CCC(O)(Cn2cnc(-c3ccccc3)cc2=O)C2(CCCC2)C1)N1CCOCC1C1CCC1 (stereo not drawn) [Example 230, 3-((7-(3-Cyclobutylmorpholine-4-carbonyl)-10-hydroxy-7-azaspiro[4.5]decan-10-yl)methyl)-6-phenylpyrimidin-4(3H)-one]

pIC50, > 6.30:
O=C(N1CC[C@@](O)(Cn2cnc(-c3ccccc3)cc2=O)C2(CCCC2)C1)N1CCC[C@H]1c1ccccc1 [Example 213, 3-(((S)-10-Hydroxy-7-((S)-2-phenylpyrrolidine-1-carbonyl)-7-azaspiro[4.5]decan-10-yl)methyl)-6-phenylpyrimidin-4(3H)-one]
O=C(NCc1cccs1)N1CC[C@@](O)(Cn2cnc(-c3ccccc3)cc2=O)C2(CCCC2)C1 [Example 214, (S)-10-Hydroxy-10-((6-oxo-4-phenylpyrimidin-1(6H)-yl)methyl)-N-(thiophen-2-ylmethyl)-7-azaspiro[4.5]decane-7-carboxamide]
O=C(NCc1cccc(F)c1)N1CC[C@@](O)(Cn2cnc(-c3ccccc3)cc2=O)C2(CCCC2)C1 [Example 216, (S)—N-(3-Fluorobenzyl)-10-hydroxy-10-((6-oxo-4-phenylpyrimidin-1(6H)-yl)methyl)-7-azaspiro[4.5]decane-7-carboxamide]
O=C(NCc1ccco1)N1CC[C@@](O)(Cn2cnc(-c3ccccc3)cc2=O)C2(CCCC2)C1 [Example 219, (S)—N-(Furan-2-ylmethyl)-10-hydroxy-10-((6-oxo-4-phenylpyrimidin-1(6H)-yl)methyl)-7-azaspiro[4.5]decane-7-carboxamide]
O=C(N1CC[C@@](O)(Cn2cnc(Cl)cc2=O)C2(CCCC2)C1)N1CCOC[C@H]1c1ccccc1 [Example 220, 6-Chloro-3-(((S)-10-hydroxy-7-((R)-3-phenylmorpholine-4-carbonyl)-7-azaspiro[4.5]decan-10-yl)methyl)pyrimidin-4(3H)-one]
O=C(N1CC[C@@](O)(Cn2cnc(C3CC3)cc2=O)C2(CCCC2)C1)N1CCOC[C@H]1c1ccccc1 [Example 222, 6-Cyclopropyl-3-(((S)-10-hydroxy-7-((R)-3-phenylmorpholine-4-carbonyl)-7-azaspiro[4.5]decan-10-yl)methyl)pyrimidin-4(3H)-one]
O=C(N1CC[C@@](O)(Cn2cnc(N3CCCC3)cc2=O)C2(CCCC2)C1)N1CCOC[C@H]1c1ccccc1 [Example 223, 3-(((S)-10-Hydroxy-7-((R)-3-phenylmorpholine-4-carbonyl)-7-azaspiro[4.5]decan-10-yl)methyl)-6-(pyrrolidin-1-yl)pyrimidin-4(3H)-one]
Cn1nccc1-c1cc(=O)n(C[C@]2(O)CCN(C(=O)N3CCOC[C@H]3c3ccccc3)CC23CCCC3)cn1 [Example 224, 3-(((S)-10-Hydroxy-7-((R)-3-phenylmorpholine-4-carbonyl)-7-azaspiro[4.5]decan-10-yl)methyl)-6-(1-methyl-1H-pyrazol-5-yl)pyrimidin-4(3H)-one]
Cn1cc(-c2cc(=O)n(C[C@]3(O)CCN(C(=O)N4CCOC[C@H]4c4ccccc4)CC34CCCC4)cn2)cn1 [Example 225, 3-(((S)-10-Hydroxy-7-((R)-3-phenylmorpholine-4-carbonyl)-7-azaspiro[4.5]decan-10-yl)methyl)-6-(1-methyl-1H-pyrazol-4-yl)pyrimidin-4(3H)-one]
CN(C)c1cc(=O)n(C[C@]2(O)CCN(C(=O)N3CCOC[C@H]3c3ccccc3)CC23CCCC3)cn1 [Example 226, 6-(Dimethylamino)-3-(((S)-10-hydroxy-7-((R)-3-phenylmorpholine-4-carbonyl)-7-azaspiro[4.5]decan-10-yl)methyl)pyrimidin-4(3H)-one]
O=C(N1CC[C@@](O)(Cn2cnc(-c3ccccc3)cc2=O)C2(CCCC2)C1)N1CCOC[C@H]1c1ccc(F)cc1 [Example 228, 3-(((S)-7-((R)-3-(4-Fluorophenyl)morpholine-4-carbonyl)-10-hydroxy-7-azaspiro[4.5]decan-10-yl)methyl)-6-phenylpyrimidin-4(3H)-one]
O=C(N1CCC(O)(Cn2cnc(-c3ccccc3)cc2=O)C2(CCCC2)C1)N1CCOCC1c1cccs1 (stereo not drawn) [Example 235, 3-((10-Hydroxy-7-(3-(thiophen-2-yl)morpholine-4-carbonyl)-7-azaspiro[4.5]decan-10-yl)methyl)-6-phenylpyrimidin-4(3H)-one]

— patent US20220033397A1, “PHARMACEUTICAL COMPOUNDS AND THEIR USE AS INHIBITORS OF UBIQUITIN SPECIFIC PROTEASE 19 (USP19)” (ALMAC DISCOVERY LIMITED, priority 2018, published 2022)
